Source: patent publication US9975903B2, “Condensed heterocyclic compound” (Takeda Pharmaceutical Company Limited, priority 2014, dated 2018)
Where a name gives a salt, the structure may show the parent alone.

Target: T1, Human recombinant enteropeptidase (Homo sapiens, UniProt P98073)
T1 construct: purchased ITSI-Biosciences LLC #REN-260
Assay: Human enteropeptidase inhibitory activity (Test Example 1)
Assay type: biochemical
Settings: 3.3 μM test compound; inhibition rate from fluorescence intensity at 2 hours after the start of the reaction; read-out: 3.3 μM Inhibition
Experimental: Human recombinant enteropeptidase (#REN-260, ITSI-Biosciences LLC) was diluted with an assay buffer (50 mM Tricine, pH 8.0, 0.01 (w/v) %, Tween 20, 10 mM CaCl2) to prepare a 24 mU/mL enzyme solution. Subsequently, 5FAM-Abu-Gly-Asp-Asp-Asp-Lys-Ile-Val-Gly-Gly-Lys(CPQ2)-Lys-Lys-NH2 (SEQ ID NO: 1, purity: 97.2%, CPC Scientific Inc.) was diluted with the assay buffer to prepare a 2.1 μM substrate solution. A test compound is dissolved in DMSO into a 1 mM solution, and the solution was diluted by 100-fold with the assay buffer to give a compound solution. To a 384-well black plate (#784076, Greiner Bio-One), 5 μL of the compound solution and 5 μL of the substrate solution were added and mixed, and 5 μL of the enzyme solution was then added to the mixture, followed by mixing to start the reaction. The fluorescence intensity was measured with a fluorescence plate reader EnVision (The Perkin-Elmer Corp.) at an excitation wavelength of 485 nm and a fluorescence wavelength of 535 nm. The same reaction as above except that the test compound was not contained was performed (test compound non-addition group). Furthermore, the same reaction as above except that the test compound and the enzyme were not contained was performed (control group). The inhibition rate was calculated using the fluorescence intensity at 2 hours after the start of the reaction by the following expression: Inhibition rate (%)=(1−((fluorescence intensity of test compound addition group)−(fluorescence intensity of control group))/((fluorescence intensity of test compound non-addition group)−(fluorescence intensity of control group)))×100

T1 sequence (P98073 whole entry): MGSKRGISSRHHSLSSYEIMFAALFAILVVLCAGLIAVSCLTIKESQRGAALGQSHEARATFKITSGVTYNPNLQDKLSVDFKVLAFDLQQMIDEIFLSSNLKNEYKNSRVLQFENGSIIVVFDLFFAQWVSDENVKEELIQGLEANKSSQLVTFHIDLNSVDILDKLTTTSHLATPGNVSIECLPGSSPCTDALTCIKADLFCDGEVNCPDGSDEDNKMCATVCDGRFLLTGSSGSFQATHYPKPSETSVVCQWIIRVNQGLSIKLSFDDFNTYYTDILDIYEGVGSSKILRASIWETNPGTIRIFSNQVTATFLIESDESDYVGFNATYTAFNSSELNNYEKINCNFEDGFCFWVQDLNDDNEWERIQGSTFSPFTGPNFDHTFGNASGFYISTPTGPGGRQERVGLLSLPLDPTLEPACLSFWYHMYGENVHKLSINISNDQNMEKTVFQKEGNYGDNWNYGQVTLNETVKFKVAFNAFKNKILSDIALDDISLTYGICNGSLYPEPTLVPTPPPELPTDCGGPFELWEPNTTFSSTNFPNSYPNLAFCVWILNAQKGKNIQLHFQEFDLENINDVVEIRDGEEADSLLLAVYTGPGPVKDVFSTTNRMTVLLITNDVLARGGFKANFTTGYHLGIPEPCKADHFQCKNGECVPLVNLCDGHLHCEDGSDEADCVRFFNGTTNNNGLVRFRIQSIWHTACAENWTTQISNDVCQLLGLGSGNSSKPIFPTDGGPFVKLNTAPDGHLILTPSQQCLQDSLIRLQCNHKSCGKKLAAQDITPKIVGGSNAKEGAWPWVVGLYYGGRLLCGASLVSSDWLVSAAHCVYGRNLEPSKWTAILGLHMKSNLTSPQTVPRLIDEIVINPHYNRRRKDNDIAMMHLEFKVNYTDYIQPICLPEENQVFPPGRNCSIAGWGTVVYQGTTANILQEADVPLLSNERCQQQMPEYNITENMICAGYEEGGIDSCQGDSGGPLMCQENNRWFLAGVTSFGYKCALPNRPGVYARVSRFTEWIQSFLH

| inhibition at 3.3 µM [%] | SMILES |
| --- | --- |
| 100 | N=C(N)Nc1ccc2c(c1)CCCOc1c(cccc1C(=O)N(CC(=O)O)CC(=O)N(CC(=O)O)Cc1ccccc1)OC2=O [Example 140, N-((10-Carbamimidamido-13-oxo-6,7,8,13-tetrahydrodibenzo[b,f][1,4]dioxecin-4-yl)carbonyl)-N-(carboxymethyl)glycyl-N-benzylglycine] |
| 101 | CN(CC(=O)N(C)[C@@H](CC(=O)O)C(=O)O)C(=O)c1cccc2c1OCCCc1cc(NC(=N)N)ccc1C(=O)O2 [Example 105, N-((10-carbamimidamido-13-oxo-6,7,8,13-tetrahydro-dibenzo[b,f] [1,4]dioxecin-4-yl)carbonyl)-N-methylglycyl-N-methyl-L-aspartic acid] |
| 101 | N=C(N)Nc1ccc2c(c1)OCCCc1c(CCC(=O)N[C@@H](CC(=O)O)C(=O)O)cccc1OC2=O [Example 79, N-(3-(3-Carbamimidamido-14-oxo-7,8-dihydro-6H,14H-dibenzo[b,f][1,5]dioxecin-9-yl)propanoyl)-L-aspartic acid] |
| 100 | N=C(N)Nc1ccc2c(c1)CCCOc1c(cccc1C(=O)N(CC(=O)O)Cc1ccccc1C(=O)O)OC2=O [Example 127] |
| 100 | N=C(N)Nc1ccc2c(c1)CCCOc1c(cccc1C(=O)N(Cc1ccc(C(=O)O)cc1)C(CC(=O)O)CC(=O)O)OC2=O [Example 147, 3-(((10-carbamimidamido-13-oxo-6,7,8,13-tetrahydro-dibenzo[b,f] [1,4]dioxecin-4-yl)carbonyl)(4-carboxybenzyl)amino)penta-nedioic acid] |
| 101 | N=C(N)Nc1ccc2c(c1)OCCCc1c(cccc1C(=O)N[C@@H](CC(=O)O)C(=O)O)OC2=O [Example 84, N-((3-carbamimidamido-14-oxo-7,8-dihydro-6H,14H-dibenzo[b,f][1,5]dioxecin-9-yl)carbonyl)-L-aspartic acid] |
| 100 | N=C(N)Nc1ccc2c(c1)CCCOc1c(ccc(CCC(=O)N(CC(=O)O)CC(=O)O)c1C(=O)O)OC2=O [Example 129, 3-(3-(bis(carboxy-methyl)amino)-3-oxopropyl)-10-carbamimidamido-13-oxo-6,7,8,13-tetrahydro-dibenzo[b,f] [1,4]dioxecine-4-carboxylic acid] |
| 102 | N=C(N)Nc1ccc2c(c1)CCCCc1c(CCC(=O)N[C@@H](CC(=O)O)C(=O)O)cccc1OC2=O [Example 83, N-(3-(3-carbamimidamido-14-oxo-5,7,8,14-tetrahydro-6H-dibenzo[b,h]oxecin-9-yl)propanoyl)-L-aspartic acid] |
| 101 | N=C(N)Nc1ccc2c(c1)CCCOc1c(cccc1C(=O)NCC(=O)O)OC2=O [Example 89, N-((10-carbamimidamido-13-oxo-6,7,8,13-tetrahydro-dibenzo[b,f] [1,4]dioxecin-4-yl)carbonyl)glycine] |
| 100 | N=C(N)Nc1ccc2c(c1)CCCOc1c(cc(CCC(=O)O)cc1C(=O)N[C@@H](CC(=O)O)C(=O)O)OC2=O [Example 117, N-((10-carbamimidamido-2-(2-carboxyethyl)-13-oxo-6,7,8,13-tetrahydro-dibenzo[b,f] [1,4]dioxecin-4-yl)carbonyl)-L-aspartic acid] |
| 101 | CN(C(=O)c1cccc2c1OCCCc1cc(NC(=N)N)ccc1C(=O)O2)[C@@H](CC(=O)O)C(=O)O [Example 85, N-((10-carbamimidamido-13-oxo-6,7,8,13-tetrahydrodibenzo[b,f] [1,4]dioxecin-4-yl)carbonyl)-N-methyl-L-aspartic acid] |
| 100 | N=C(N)Nc1ccc2c(c1)CCCOc1c(cccc1C(=O)N1CCC(C(=O)N[C@@H](CC(=O)O)C(=O)O)CC1)OC2=O [Example 101, N-((1-((10-carbamimidamido-13-oxo-6,7,8,13-tetrahydro-dibenzo[b,f] [1,4]dioxecin-4-yl)carbonyl)-piperidin-4-yl)carbonyl)-L-aspartic acid] |
| 100 | N=C(N)Nc1ccc2c(c1)CCCOc1c(cccc1C(=O)N(CCC(=O)O)[C@@H](CC(=O)O)C(=O)O)OC2=O [Example 138, N-((10-carbamimidamido-13-oxo-6,7,8,13-tetrahydro-dibenzo[b,f] [1,4]dioxecin-4-yl)carbonyl)-N-(2-carboxyethyl)-L-aspartic acid] |
| 100 | N=C(N)Nc1ccc2c(c1)CCCOc1c(cccc1C(=O)N(CCC(=O)O)Cc1cccc(C(=O)O)c1)OC2=O [Example 134, 3-((((10-carbamimidamido-13-oxo-6,7,8,13-tetrahydro-dibenzo[b,f] [1,4]dioxecin-4-yl)carbonyl)(2-carboxyethyl)amino)methyl)benzoic acid] |
| 100 | N=C(N)Nc1ccc2c(c1)CCCOc1c(CCC(=O)N[C@@H](CCC(=O)O)C(=O)O)cccc1OC2=O [Example 93, N-(3-(10-carbamimidamido-13-oxo-6,7,8,13-tetrahydro-dibenzo[b,f] [1,4]dioxecin-4-yl)propanoyl)-L-glutamic acid] |
| 99 | N=C(N)Nc1ccc2c(c1)CCCOc1c(cccc1C(=O)N(CC(=O)O)CC(=O)N(CC(=O)O)CC(=O)O)OC2=O [Example 115, ((2-(Bis(carboxymethyl)amino)-2-oxoethyl) ((10-carbamimidamido-13-oxo-6,7,8,13-tetrahydrodibenzo[b,f][1,4]dioxecin-4-yl)carbonyl)amino)acetic acid] |

Second part, the molecule before the results:

| SMILES | inhibition at 3.3 µM [%] |
| --- | --- |
| CC1CCCc2cc(NC(=N)N)ccc2C(=O)Oc2cccc(C(=O)N[C@@H](CC(=O)O)C(=O)O)c21 (stereo partly drawn) [Example 21, N-((3-carbamimidamido-8-methyl-14-oxo-5,7,8,14-tetrahydro-6H-dibenzo[b,h]oxecin-9-yl)carbonyl)-L-aspartic acid] | 102 |
| C[C@@H]1CCc2cc(NC(=N)N)ccc2C(=O)Oc2cccc(C(=O)N[C@@H](CC(=O)O)C(=O)O)c2C1 [Example 20, N-((3-carbamimidamido-7-methyl-14-oxo-6,7,8,14-tetrahydro-6H-dibenzo[b,h]oxecin-9-yl)carbonyl)-L-aspartic acid] | 102 |
| N=C(N)Nc1ccc2c(c1)CCCOc1c(cccc1C(=O)N[C@@H](CC(N)=O)C(=O)O)OC2=O [Example 17, N^~2^~-((10-carbamimidamido-13-oxo-6,7,8,13-tetrahydro-dibenzo[b,f] [1,4]dioxecin-4-yl)carbonyl)-L-asparagine] | 100 |
| N=C(N)c1ccc2c(c1)CCc1c(C(=O)N[C@@H](CC(=O)O)C(=O)O)cccc1C(=O)O2 [Example 62, N-((2-Carbamimidoyl-6-oxo-11,12-dihydro-6H-dibenzo[b,f]oxocin-10-yl)carbonyl)-L-aspartic acid trifluoroacetate] | 84 |
| N=C(N)Nc1ccc2c(c1)OCCOc1c(CCC(=O)N[C@@H](CC(=O)O)C(=O)O)cccc1OC2=O [Example 52, N-(3-(3-Carbamimidamido-14-oxo-6,7-dihydro-14H-dibenzo[b,h][1,4,7]trioxecin-9-yl)propanoyl)aspartic acid trifluoroacetate] | 101 |
| N=C(N)Nc1ccc2c(c1)CCCOc1c(cccc1C(=O)N(CCC(=O)O)CC(=O)O)OC2=O [Example 64, N-((10-carbamimidamido-13-oxo-6,7,8,13-tetrahydro-dibenzo[b,f] [1,4]dioxecin-4-yl)carbonyl)-N-(carboxymethyl)-beta-alanine] | 101 |
| N=C(N)Nc1ccc2c(c1)CCc1ccc(CCC(=O)N[C@@H](CC(=O)O)C(=O)O)cc1OC2=O [Example 55, N-(3-(9-carbamimidamido-6-oxo-11,12-dihydro-6H-dibenzo[b,f]oxocin-3-yl)propanoyl)-L-aspartic acid] | 98 |
| N=C(N)Nc1ccc2c(c1)CCCOc1c(cccc1C(=O)N(CCC(=O)O)CCC(=O)O)OC2=O [Example 9, 3,3′-(((10-carbamimidamido-13-oxo-6,7,8,13-tetrahydro-dibenzo[b,f] [1,4]dioxecin-4-yl)carbonyl)imino) dipropanoic acid (non-preferred name)] | 101 |
| N=C(N)Nc1ccc2c(c1)CCCc1c(cccc1C(=O)N[C@@H](CC(=O)O)C(=O)O)OC2=O [Example 30, N-((9-Carbamimidamido-6-oxo-6,11,12,13-tetrahydrodibenzo[b,g]oxonin-1-yl)carbonyl)-L-aspartic acid trifluoroacetate] | 101 |
| N=C(N)Nc1ccc2c(c1)OCCOc1cc(CCC(=O)N[C@@H](CC(=O)O)C(=O)O)ccc1OC2=O [Example 53, N-(3-(3-carbamimidamido-14-oxo-6,7-dihydro-14H-dibenzo[b,h][1,4,7]trioxecin-10-yl)propanoyl) aspartic acid] | 101 |
| N=C(N)Nc1ccc2c(c1)CCCCc1c(cc3c(c1C(=O)NCCS(=O)(=O)O)CCO3)OC2=O [Example 36, 2-(((3-carbamimidamido-15-oxo-5,7,8,10,11,15-hexahydro-6H-12,14-dioxabenzo[5,6]cyclodeca[1,2-f]inden-9-yl)carbonyl)amino)ethane-sulfonic acid] | 94 |
